# Experimental data: patent publication US10155768B2, “Fused pyrimidine compound or salt thereof” (TAIHO PHARMACEUTICAL CO., LTD., priority 2016, dated 2018)
# Experiments:
# [1] = target: recombinant human RET protein (Homo sapiens (Human), UniProt P07949); assay: Measurement of inhibitory activity against RET (in vitro); format: biochemical; settings: ATP 10 μM
# [2] = system: TT cells (a human thyroid cancer cell line with RET activating mutation (C634W)); assay: Cell growth inhibitory effect (1), TT cells; format: cell-based; settings: 168 h, read-out: TT Cell GI50 (nM)
# Description: An in vitro cytotoxicity test was performed on TT cells (a human thyroid cancer cell line with RET activating mutation (C634W)).
# (§1) After shaking, each culture was allowed to stand at room temperature for 15 minutes, and the chemiluminescence was measured with a luminometer to use it as an index of the number of viable cells.
# C: The absorbance of the well to which a test compound was not added. Day 1: The day on which a test compound was added. Day 8: The day on which evaluation was performed.
# [3] = system: LC-2/ad cells (a human lung adenocarcinoma cell line with CCDC6-RET fusion gene); assay: Cell growth inhibitory effect (2), LC-2/ad cells; format: cell-based; settings: 168 h, read-out: LC-2/ad Cell GI50
# Description: An in vitro cytotoxicity test was performed on LC-2/ad cells (a human lung adenocarcinoma cell line with CCDC6-RET fusion gene).
# as §1
# [4] = system: TT cells (human thyroid cancer cell line with RET activating mutation); assay: In vivo antitumor effect, mice subcutaneously implanted with TT cells; parameters: species or system BALB/cA Jcl-nu/nu male mice; settings: 100 mg/kg/day oral, 14 days
# Description: Human thyroid cancer cell lines (TT) were subcutaneously implanted into the right frank of 6- to 7-week-old BALB/cA Jcl-nu/nu male mice. After about 2 to 3 weeks from the cell implantation, the length (nm) and the width (mm) of tumors found in mouse bodies were measured. […] The day on which the mice were divided into groups was determined to be the “grouping day” (day 0 or 1).
# A control group was administered a solvent (0.5% HPMC/0.1N HCl).
# To determine the index of the antitumor effect, TV of each drug-administrated group was measured on day 15, and the tumor volume on day 15 relative to the tumor volume on the grouping day (day 0 or 1) (relative tumor volume: RTV) and T/C (%) were calculated from the following equations, and the antitumor effect was evaluated. […] TV(mm^3)=(length×width^2)/2 RTV=(TV on day 15)/(TV on day 0 or day 1) T/C(%)=(the mean RTV of a test compound treatment group)/(the mean RTV of the control group)×100
# [5] = mouse, microsomes, 0.5 h
# Description: Solutions of the test compounds in DMSO/acetonitrile (the final concentration of each test compound was 1 μM, the final concentration of DMSO was 0.01%, and the final concentration of acetonitrile was 1%) were individually added to a liver microsome mixture solution (mouse liver microsome with a final concentration of 0.25 mg/mL, a potassium phosphate buffer with a final concentration of 100 mM, and magnesium chloride with a final concentration of 3 mM), and each mixture was pre-incubated at 37° C. for 5 minutes. […] After incubation at 37° C. for 30 minutes, a double amount of ethanol was added thereto to terminate the reaction, thereby obtaining post-reaction samples. A double amount of ethanol was added to each of the remaining mixture solutions, and a NADPH-generating system was further added thereto, thereby obtaining pre-reaction samples. The pre-reaction samples and post-reaction samples were centrifuged at 2000×g, and their supernatant was filtered through a glass filter. Each filtrate was then introduced into LC-MS/MS, and MS/MS peaks of the test compounds were detected. From the ratio of the post-reaction MS/MS peak to the pre-reaction MS/MS peak of the test compounds, the percentage of the remaining test compounds (remaining %) was calculated.
# Sequence of recombinant human RET protein (P07949 29-1114): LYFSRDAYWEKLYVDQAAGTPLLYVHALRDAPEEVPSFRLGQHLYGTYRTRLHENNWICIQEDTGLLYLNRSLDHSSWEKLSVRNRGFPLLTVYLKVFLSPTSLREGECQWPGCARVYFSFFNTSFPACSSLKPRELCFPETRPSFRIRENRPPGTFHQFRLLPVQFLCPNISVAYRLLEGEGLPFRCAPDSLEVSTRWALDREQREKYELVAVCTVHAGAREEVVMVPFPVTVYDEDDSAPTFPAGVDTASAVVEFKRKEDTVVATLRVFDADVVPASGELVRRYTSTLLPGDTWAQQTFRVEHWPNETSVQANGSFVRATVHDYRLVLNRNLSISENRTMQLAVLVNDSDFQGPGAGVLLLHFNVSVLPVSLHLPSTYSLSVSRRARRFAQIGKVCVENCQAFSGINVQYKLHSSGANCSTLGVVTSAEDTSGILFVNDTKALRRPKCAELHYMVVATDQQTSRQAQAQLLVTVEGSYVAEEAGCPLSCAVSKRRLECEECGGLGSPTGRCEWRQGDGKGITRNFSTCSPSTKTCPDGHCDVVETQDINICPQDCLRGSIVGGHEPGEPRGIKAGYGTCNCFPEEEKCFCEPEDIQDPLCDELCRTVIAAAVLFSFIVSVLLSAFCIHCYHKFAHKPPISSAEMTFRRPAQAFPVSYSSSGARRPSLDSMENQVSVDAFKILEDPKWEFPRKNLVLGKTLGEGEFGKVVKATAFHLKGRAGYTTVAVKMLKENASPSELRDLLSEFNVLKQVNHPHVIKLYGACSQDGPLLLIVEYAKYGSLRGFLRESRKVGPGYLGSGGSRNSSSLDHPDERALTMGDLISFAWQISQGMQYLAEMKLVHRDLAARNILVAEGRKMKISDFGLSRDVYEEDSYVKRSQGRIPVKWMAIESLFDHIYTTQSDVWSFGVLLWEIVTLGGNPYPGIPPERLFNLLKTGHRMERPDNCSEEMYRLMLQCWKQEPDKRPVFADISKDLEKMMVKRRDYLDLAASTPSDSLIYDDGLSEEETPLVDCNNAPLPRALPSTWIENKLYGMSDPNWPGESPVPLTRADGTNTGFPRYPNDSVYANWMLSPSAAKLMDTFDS
SMILES,IC50 [1] [nM],GI50 [2] [nM],GI50 [3] [nM],T/C (%) ([4]; day 15),TV (mm^3) Day 15 Mean ± SE ([4]; day 15) [mm^3],RTV Day 15 Mean ± SE ([4]; day 15 relative to day 0),Remaining (%) [5] [%]
"COCc1ccc(NC(=O)c2nn(-c3ccccc3)c3ncnc(N)c23)cc1 [Comound 5 of Comparative Examples, 4-amino-N-(4-(methoxymethyl)phenyl)-1-phenyl-1H-pyrazolo[3,4-d]pyrimidine-3-carboxamide]",> 5000,–,–,–,–,–,–
"COCc1ccc(NC(=O)c2c(C#CCN3CCOCC3)n(C3(C)CC3)c3ncnc(N)c23)cc1 [Example 85, 4-amino-N-[4-(methoxymethyl)phenyl]-7-(1-methylcyclopropyl)-6-(3-morpholinoprop-1-yn-1-yl)-7H-pyrrolo[2,3-d]pyrimidine-5-carboxamide]",–,10,17.7,23,139.42 ± 10.17,0.87 ± 0.13,79
